Experimental data reported in US10208033B2, “β-carboline, dihydro-β-carboline and tetrahydro-β-carboline alkaloid derivatives and preparation methods same and use in aspects of preventing and treating plant viruses, fungicides and insecticides” (NANKAI UNIVERSITY, priority 2013, dated 2019).
Structures can show the parent of a compound that is named as a salt.

What was measured:
[1] = system: tobacco mosaic virus (TMV); assay: Anti-TMV in vitro effect (half-leaf soaking); format: cell-based, tobacco mosaic virus (host Nicotiana tabacum L.cv.Xanthi NN); conditions: for inhibition at 100 µg/mL / inhibition at 500 µg/mL: Tobacco mosaic virus, read-out: Relative inhibition rate (%) In vitro activity
[2] = system: tobacco mosaic virus (TMV); assay: Anti-TMV in vivo inactivation; design: species or system tobacco mosaic virus (host Nicotiana tabacum L.cv.Xanthi NN); conditions: for inhibition at 100 µg/mL / inhibition at 500 µg/mL: Tobacco mosaic virus, read-out: Relative inhibition rate (%) In vivo inactivation
[3] = system: tobacco mosaic virus (TMV); assay: Anti-TMV in vivo therapeutic effect; design: species or system tobacco mosaic virus (host Nicotiana tabacum L.cv.Xanthi NN); conditions: for inhibition at 100 µg/mL / inhibition at 500 µg/mL: Tobacco mosaic virus, read-out: Relative inhibition rate (%) In vivo therapy
[4] = system: tobacco mosaic virus (TMV); assay: Anti-TMV in vivo protective effect; design: species or system tobacco mosaic virus (host Nicotiana tabacum L.cv.Xanthi NN); conditions: for inhibition at 100 µg/mL / inhibition at 500 µg/mL: Tobacco mosaic virus, read-out: Relative inhibition rate (%) In vivo protection
cucumber fusarium wilt = assay: Fungicidal (bactericidal) activity in vitro, PDA colony diameter; format: cell-based; conditions: 50 mg/kg; for inhibition of growth at 50 mg/kg: Fusarium, 96 h
Cercospora arachidicola = assay: as above; format: cell-based; conditions: 50 mg/kg; for inhibition of growth at 50 mg/kg: Mycosphaerella arachidis, 96 h
Macrophoma kawatsukai = assay: as above; format: cell-based; conditions: 50 mg/kg
Alternaria solani = assay: as above; format: cell-based; conditions: 50 mg/kg; for inhibition of growth at 50 mg/kg: Alternaria solani, 96 h
Fusarium graminearumt = assay: microbe, parasite or virus in culture; format: cell-based; conditions: for inhibition of growth at 50 mg/kg: Fusarium, 96 h, read-out: Bactericidal activity (%) Fusarium graminearumt
potato late blight = assay: microbe, parasite or virus in culture; format: cell-based; conditions: for inhibition of growth at 50 mg/kg: Phytophthora infestans, 96 h, read-out: Bactericidal activity (%) potato late blight
Sclerotinia scleotiorum = assay: Fungicidal (bactericidal) activity in vitro, PDA colony diameter; format: cell-based; conditions: 50 mg/kg; for inhibition of growth at 50 mg/kg: Sclerotinia, 96 h
Botrytis cinerea = assay: as above; format: cell-based; conditions: 50 mg/kg; for inhibition of growth at 50 mg/kg: Botrytis cinerea, 96 h
Rhizoctonia solani = assay: as above; format: cell-based; conditions: 50 mg/kg; for inhibition of growth at 50 mg/kg: Rhizoctonia solani, 96 h
Phytophthora capsici = assay: as above; format: cell-based; conditions: 50 mg/kg; for inhibition of growth at 50 mg/kg: Phytophthora capsici, 96 h
Fusarium fujikuroi = assay: as above; format: cell-based; conditions: 50 mg/kg; for inhibition of growth at 50 mg/kg: Fusarium fujikuroi, 96 h
Rhizoctonia cereali = assay: as above; format: cell-based; conditions: 50 mg/kg; for inhibition of growth at 50 mg/kg: Rhizoctonia, 96 h
Bipolaria maydis = assay: organism not typed; format: cell-based; conditions: for inhibition at 50 mg/kg: read-out: Bactericidal activity (%) Bipolaria maydis
[5] = system: Colletotrichum orbiculare; assay: Fungicidal (bactericidal) activity in vitro, PDA colony diameter; format: cell-based; conditions: 50 mg/kg; for inhibition of growth at 50 mg/kg: Colletotrichum orbiculare, 96 h
armyworms = format: in vivo; conditions: concentration 600 mg/kg
cotton bollworms = assay: whole plant or invertebrate; conditions: for mortality at 600 mg/kg: Helicoverpa armigera, in Gossypium hirsutum, read-out: Cotton bollworm Mortality (%)
Procedure: Experimental method of cotton bollworms: feed and drug mixing method: measure 3 mL of prepared solution and add it to about 27 g of newly prepared feed, thereby obtaining needed concentration through dilution by 10 times.

mosquito larvae = assay: whole plant or invertebrate; conditions: 24 h; for mortality at 10 mg/kg: Culex pipiens, read-out: Mosquito larvae Mortality (%)
In short: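 Early fourth-instar Culex pipiens pallens larvae from an indoor colony, 10 per beaker, exposed to test compound at 5 ppm in water, diluted from a 1000 ppm acetone mother solution. Blank: water containing 0.5 mL test solvent.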

corn borers [6] = assay: whole plant or invertebrate; conditions: read-out: Corn borer Mortality (%)
corn borers [7] = conditions: concentration 600 mg/kg

## Cc1nccc2c1[nH]c1cc(OC(=O)NC(C)C)ccc12 [Ia-5, isopropylamino formate (1-methylpyridino [3,4-b]indol-7)-ester]
[1]; treatment dose 100 μg/mL
  inhibition at 100 µg/mL: 0%
[1]; treatment dose 500 μg/mL
  inhibition at 500 µg/mL: 31.3%
[2]; treatment dose 100 μg/mL
  inhibition at 100 µg/mL: 0%
[2]; treatment dose 500 μg/mL
  inhibition at 500 µg/mL: 29.5%
[3]; treatment dose 100 μg/mL
  inhibition at 100 µg/mL: 0%
[3]; treatment dose 500 μg/mL
  inhibition at 500 µg/mL: 32.7%
[4]; treatment dose 100 μg/mL
  inhibition at 100 µg/mL: 5.8%
[4]; treatment dose 500 μg/mL
  inhibition at 500 µg/mL: 40.3%
Cucumber fusarium wilt
  inhibition of growth at 50 mg/kg: 34.6%
Cercospora arachidicola
  inhibition of growth at 50 mg/kg: 53.9%
Macrophoma kawatsukai
  inhibition at 50 mg/kg: 2.4%
Alternaria solani
  inhibition of growth at 50 mg/kg: 21.1%
Fusarium graminearumt
  inhibition of growth at 50 mg/kg: 23.8%
Potato late blight
  inhibition of growth at 50 mg/kg: 18.2%
Sclerotinia scleotiorum
  inhibition of growth at 50 mg/kg: 9.8%
Botrytis cinerea
  inhibition of growth at 50 mg/kg: 0%
Rhizoctonia solani
  inhibition of growth at 50 mg/kg: 6.6%
Phytophthora capsici
  inhibition of growth at 50 mg/kg: 25%
Fusarium fujikuroi
  inhibition of growth at 50 mg/kg: 14.3%
Rhizoctonia cereali
  inhibition of growth at 50 mg/kg: 36.8%
Bipolaria maydis
  inhibition at 50 mg/kg: 22.7%
[5]
  inhibition of growth at 50 mg/kg: 39.3%
armyworms
  Armyworm Mortality (%): 10%
Cotton bollworms
  mortality at 600 mg/kg: 15%
Mosquito larvae
  mortality at 10 mg/kg: 30%
Corn borers [6]
  mortality at 600 mg/kg: 10%

## Cc1nccc2c1[nH]c1cc(OC(=O)[C@@H](NC(=O)OCc3ccccc3)C(C)C)ccc12 [Ia-9]
[1]; treatment dose 100 μg/mL
  inhibition at 100 µg/mL: 0%
[1]; treatment dose 500 μg/mL
  inhibition at 500 µg/mL: 20.7%
[2]; treatment dose 100 μg/mL
  inhibition at 100 µg/mL: 0%
[2]; treatment dose 500 μg/mL
  inhibition at 500 µg/mL: 13.6%
[3]; treatment dose 100 μg/mL
  inhibition at 100 µg/mL: 0%
[3]; treatment dose 500 μg/mL
  inhibition at 500 µg/mL: 12.5%
[4]; treatment dose 100 μg/mL
  inhibition at 100 µg/mL: 0%
[4]; treatment dose 500 μg/mL
  inhibition at 500 µg/mL: 19.6%
Cucumber fusarium wilt
  inhibition of growth at 50 mg/kg: 38.5%
Cercospora arachidicola
  inhibition of growth at 50 mg/kg: 61.5%
Macrophoma kawatsukai
  inhibition at 50 mg/kg: 78.6%
Alternaria solani
  inhibition of growth at 50 mg/kg: 36.8%
Fusarium graminearumt
  inhibition of growth at 50 mg/kg: 35.7%
Potato late blight
  inhibition of growth at 50 mg/kg: 45.5%
Sclerotinia scleotiorum
  inhibition of growth at 50 mg/kg: 13.7%
Botrytis cinerea
  inhibition of growth at 50 mg/kg: 51.5%
Rhizoctonia solani
  inhibition of growth at 50 mg/kg: 52.6%
Phytophthora capsici
  inhibition of growth at 50 mg/kg: 50%
Fusarium fujikuroi
  inhibition of growth at 50 mg/kg: 21.4%
Rhizoctonia cereali
  inhibition of growth at 50 mg/kg: 84.2%
Bipolaria maydis
  inhibition at 50 mg/kg: 36.4%
[5]
  inhibition of growth at 50 mg/kg: 50%
armyworms
  Armyworm Mortality (%): 5%
Cotton bollworms
  mortality at 600 mg/kg: 20%
Mosquito larvae
  mortality at 10 mg/kg: 25%
Corn borers [6]
  mortality at 600 mg/kg: 5%

## CCCCCC(=O)NNC(=O)[C@@H]1Cc2c([nH]c3ccccc23)[C@H](C)N1 [Id-5, (1S, 3S)—N′—N-Hexanoyl-1-methyl-2,3,4,9-tetrahydropyridino [3,4-b] indol-3-formylhydrazine]
[1]; treatment dose 100 μg/mL
  Relative inhibition rate (%) In vitro activity: 0%
[1]; treatment dose 500 μg/mL
  Relative inhibition rate (%) In vitro activity: 32.1%
[2]; treatment dose 100 μg/mL
  Relative inhibition rate (%) In vivo inactivation: 0%
[2]; treatment dose 500 μg/mL
  Relative inhibition rate (%) In vivo inactivation: 31.5%
[3]; treatment dose 100 μg/mL
  Relative inhibition rate (%) In vivo therapy: 0%
[3]; treatment dose 500 μg/mL
  Relative inhibition rate (%) In vivo therapy: 27.3%
[4]; treatment dose 100 μg/mL
  Relative inhibition rate (%) In vivo protection: 0%
[4]; treatment dose 500 μg/mL
  Relative inhibition rate (%) In vivo protection: 30.9%
Cucumber fusarium wilt
  Bactericidal activity (%) Cucumber fusarium wilt: 22.7%
Cercospora arachidicola
  Bactericidal activity (%) Cercospora arachidicola: 45.5%
Macrophoma kawatsukai
  Bactericidal activity (%) Macrophoma kawatsukai: 63.6%
Alternaria solani
  Bactericidal activity (%) Alternaria solani: 23.8%
Fusarium graminearumt; 50 mg/kg
  Bactericidal activity (%) Fusarium graminearumt: 46.2%
Potato late blight
  Bactericidal activity (%) potato late blight: 26.1%
Sclerotinia scleotiorum
  Bactericidal activity (%) Sclerotinia scleotiorum: 26.9%
Botrytis cinerea
  Bactericidal activity (%) Botrytis cinerea: 66.7%
Rhizoctonia solani
  Bactericidal activity (%) Rhizoctonia solani: 1.4%
Phytophthora capsici
  Bactericidal activity (%) Phytophthora capsici: 21.2%
Fusarium fujikuroi
  Bactericidal activity (%) Fusarium fujikuroi: 29.4%
Rhizoctonia cereali
  Bactericidal activity (%) Rhizoctonia cereali: 29.7%
Bipolaria maydis; 50 mg/kg
  Bactericidal activity (%) Bipolaria maydis: 32.0%
[5]
  Bactericidal activity (%) Colletotrichum orbiculare: 28.0%
armyworms
  Armyworm Mortality (%): 5%
Cotton bollworms; concentration 600 mg/kg
  Cotton bollworm Mortality (%): 30%
Mosquito larvae; concentration 10 mg/kg
  Mosquito larvae Mortality (%): 10%
Corn borers [7]
  Corn borer Mortality (%): 25%

## COc1ccc2c3c([nH]c2c1)C(C)NCC3 (stereo not drawn) [Tetrahydroharmine]
[1]; treatment dose 100 μg/mL
  inhibition at 100 µg/mL: 28.7%
[1]; treatment dose 500 μg/mL
  inhibition at 500 µg/mL: 58.2%
[2]; treatment dose 100 μg/mL
  inhibition at 100 µg/mL: 26.4%
[2]; treatment dose 500 μg/mL
  inhibition at 500 µg/mL: 59.8%
[3]; treatment dose 100 μg/mL
  inhibition at 100 µg/mL: 27.3%
[3]; treatment dose 500 μg/mL
  inhibition at 500 µg/mL: 55.5%
[4]; treatment dose 100 μg/mL
  inhibition at 100 µg/mL: 24.2%
[4]; treatment dose 500 μg/mL
  inhibition at 500 µg/mL: 54.6%
armyworms
  Armyworm Mortality (%): 0%
Cotton bollworms
  mortality at 600 mg/kg: 10%
Mosquito larvae
  mortality at 10 mg/kg: 15%
Corn borers [6]
  mortality at 600 mg/kg: 0%
